From ChEMBL document CHEMBL1201862, “PubChem BioAssay data set” (2004)
Active and inactive are the calls of the source.

Columns and labels:
[1] = growth suppression of PTEN-null colon cells, dose response, cell-based, HCT116 PTEN knockout (AID 1047); format: functional;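 further: HCT116 colon tumor cells with PTEN knocked out; cells exposed to compound for 60 hours before readout; potency for loss of cell viability measured by luminescence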
[2] = growth suppression of beta-catenin-knockout colon cells, dose response, cell-based, HCT116, human colon tumor (AID 1045); format: functional;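 further: HCT116 colon tumor cells with beta catenin knocked out; cells exposed to compound for 60 hours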
[3] = cytotoxicity in HEK-293T cells, dose response, cytotoxicity control for TCR NF-kB inhibitor project, luminescence, T-cell screen hits (AID 489026); format: functional, cell-based;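 further: cells exposed to compound about 14 hours before the viability readout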
[4] = biological target: T1, Heat shock factor protein 1 (Mus musculus, UniProt P38532); assay: HSF1 potentiators in luciferase reporter cells, confirmation, cell-based, NIH3T3, luminescence, dose retest (AID 435004); format: functional;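 further: stress induced by proteasome inhibitor MG132 added 30 min after compound; luciferase reporter driven by HSF1 response element in NIH3T3 cells; actives raise luminescence as potentiators of the MG132 stress response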
T1 sequence (P38532 whole entry): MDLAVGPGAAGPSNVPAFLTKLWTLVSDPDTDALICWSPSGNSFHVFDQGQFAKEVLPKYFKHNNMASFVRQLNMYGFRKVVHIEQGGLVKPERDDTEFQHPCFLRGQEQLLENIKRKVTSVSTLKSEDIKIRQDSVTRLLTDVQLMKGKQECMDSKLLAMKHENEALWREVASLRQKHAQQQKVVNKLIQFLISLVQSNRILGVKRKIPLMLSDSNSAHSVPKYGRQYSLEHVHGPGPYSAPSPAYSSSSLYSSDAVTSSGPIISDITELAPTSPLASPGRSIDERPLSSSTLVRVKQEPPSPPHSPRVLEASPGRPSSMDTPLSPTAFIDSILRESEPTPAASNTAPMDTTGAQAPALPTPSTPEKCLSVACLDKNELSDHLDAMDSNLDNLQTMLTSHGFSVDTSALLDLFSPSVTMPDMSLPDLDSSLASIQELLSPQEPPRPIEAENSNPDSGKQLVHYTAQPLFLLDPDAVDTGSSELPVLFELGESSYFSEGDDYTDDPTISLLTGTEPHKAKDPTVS

[5] = biological target: Photoreceptor-specific nuclear receptor (Homo sapiens, UniProt Q9Y5X4); format: functional, cell-based;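 further: CHO-S cells with Gal4-NCOR and VP16-NR2E3 two-hybrid luciferase reporter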
[6] = biological target: SWI/SNF-related matrix-associated actin-dependent regulator of chromatin subfamily A member 2 (Homo sapiens, UniProt P51531); assay: Luminescence-based cell-based high throughput dose response assay to identify activators of the function of SWI/SNF related, matrix associated, actin dependent regulator of chromatin, subfamily a, member 2 (SMARCA2, BRM).; format: functional
[7] = HEK293T cell cytotoxicity, dose response, cytotoxicity control for HIV Vif inhibitor project, cherry-picks (AID 652208); format: functional, cell-based
[8] = Counterscreen for activators of the function of SWI/SNF related, matrix associated, actin dependent regulator of chromatin, subfamily a, member 2 (SMARCA2, BRM): Luminescence-based cell-based high throughput dose response assay to identify non-selective compounds using the VP16 reporter assay.; format: functional
A549 = assay: A549 cell toxicity, dose response, cytotoxicity control, plate reader, cherry-pick samples (AID 687028); format: functional, cell-based; settings: Homo sapiens
[9] = Counterscreen for […] of the human trace amine associated receptor 1 (TAAR1): Fluorescence-based cell-based high throughput dose response assay to identify nonselective Ga16 agonists.; format: functional
[10] = biological target: T2, Trace amine-associated receptor 1 (Homo sapiens, UniProt Q96RJ0); assay: Fluorescence-based cell-based high throughput dose response assay to identify antagonists of the human trace amine associated receptor 1 (TAAR1).; format: functional
T2 sequence (Q96RJ0 whole entry): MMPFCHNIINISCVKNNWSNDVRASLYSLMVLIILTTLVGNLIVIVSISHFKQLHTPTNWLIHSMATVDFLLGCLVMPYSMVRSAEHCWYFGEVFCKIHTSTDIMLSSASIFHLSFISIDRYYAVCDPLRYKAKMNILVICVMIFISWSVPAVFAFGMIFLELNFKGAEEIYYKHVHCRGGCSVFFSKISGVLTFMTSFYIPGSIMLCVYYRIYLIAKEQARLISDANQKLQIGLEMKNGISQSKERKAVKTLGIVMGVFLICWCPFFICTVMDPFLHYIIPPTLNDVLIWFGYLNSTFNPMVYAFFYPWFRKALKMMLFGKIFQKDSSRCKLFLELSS

[11] = Counterscreen for antagonists of the human trace amine associated receptor 1 (hTAAR1): Fluorescence-based cell-based high throughput dose response assay to identify nonselective Ga16 antagonists.; format: functional
[12] = biological target: T2, Trace amine-associated receptor 1; assay: Counterscreen for antagonists of the human trace amine associated receptor 1 (hTAAR1): Fluorescence-based cell-based high throughput dose response assay to identify TAAR1 Agonists.; format: functional
[13] = biological target: Fructose-bisphosphate aldolase (Mycobacterium tuberculosis, UniProt P9WQA3); assay: Fluorescence-based biochemical high throughput dose response assay for inhibitors of the fructose-bisphosphate aldolase (FBA) of M. tuberculosis.; format: functional
[14] = CTGF mRNA reduction under YAP1 overexpression, dose response, mechanism study for YAP1 pathway inhibitor project, DLD1 cells, RT-qPCR, cherry-pick (AID 1053127); format: functional, cell-based; settings: DLD-1
[15] = biological target: Disintegrin and metalloproteinase domain-containing protein 17 (Homo sapiens, UniProt P78536); assay: exosite inhibitors of ADAM17, dose response, biochemical (AID 743260)
[16] = ADAM10 protease inhibitors, dose response, selectivity assay for ADAM17 exosite inhibitor project, biochemical, FRET peptide substrate, recombinant human ADAM10 (AID 743259);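 further: ADAM10 enzyme cleaving a FRET peptide substrate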
[17] = A549 cell cytotoxicity, dose response, cytotoxicity control, plate reader, cherry-pick, antagonist series (AID 743412); format: functional, cell-based
[18] = LGR2 antagonists, dose response, cell-based, HEK293, CRE-luciferase reporter, cherry pick, set 2 (AID 743343); format: functional;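 further: transfected cells were stimulated with diluted bursicon conditioned medium after compound addition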
[19] = HepG2 cell cytotoxicity, dose response, cytotoxicity control, cherry-picks, set 5 (AID 1053118); format: functional, cell-based
[20] = HEK293 cell cytotoxicity, dose response, cytotoxicity control, cherry-picks, set 5 (AID 1053117); format: functional, cell-based
[21] = A549 cell cytotoxicity, dose response, cytotoxicity control, cherry-picks, 26 µM top dose (AID 1053119); format: functional, cell-based
[22] = MC4R antagonists, dose response, counter-screen for LGR2 antagonist project, cell-based, plate reader, cherry pick (AID 743444); format: functional;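 further: transfected HEK 293 cells stimulated with alpha-MSH peptide; potency of inhibitors of the alpha-MSH evoked signal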
[23] = inhibitors of fibronectin matrix deposition, dose response, AH1F cells, Alexa488-FN fluorescence, cherry-picks (AID 1035475); format: functional, cell-based
[24] = HEK293 cell cytotoxicity, dose response, cytotoxicity control, plate reader, cherry-picked samples (AID 743446); format: functional, cell-based

Sequence of SWI/SNF-related matrix-associated actin-dependent regulator of chromatin subfamily A member 2 (P51531 whole entry): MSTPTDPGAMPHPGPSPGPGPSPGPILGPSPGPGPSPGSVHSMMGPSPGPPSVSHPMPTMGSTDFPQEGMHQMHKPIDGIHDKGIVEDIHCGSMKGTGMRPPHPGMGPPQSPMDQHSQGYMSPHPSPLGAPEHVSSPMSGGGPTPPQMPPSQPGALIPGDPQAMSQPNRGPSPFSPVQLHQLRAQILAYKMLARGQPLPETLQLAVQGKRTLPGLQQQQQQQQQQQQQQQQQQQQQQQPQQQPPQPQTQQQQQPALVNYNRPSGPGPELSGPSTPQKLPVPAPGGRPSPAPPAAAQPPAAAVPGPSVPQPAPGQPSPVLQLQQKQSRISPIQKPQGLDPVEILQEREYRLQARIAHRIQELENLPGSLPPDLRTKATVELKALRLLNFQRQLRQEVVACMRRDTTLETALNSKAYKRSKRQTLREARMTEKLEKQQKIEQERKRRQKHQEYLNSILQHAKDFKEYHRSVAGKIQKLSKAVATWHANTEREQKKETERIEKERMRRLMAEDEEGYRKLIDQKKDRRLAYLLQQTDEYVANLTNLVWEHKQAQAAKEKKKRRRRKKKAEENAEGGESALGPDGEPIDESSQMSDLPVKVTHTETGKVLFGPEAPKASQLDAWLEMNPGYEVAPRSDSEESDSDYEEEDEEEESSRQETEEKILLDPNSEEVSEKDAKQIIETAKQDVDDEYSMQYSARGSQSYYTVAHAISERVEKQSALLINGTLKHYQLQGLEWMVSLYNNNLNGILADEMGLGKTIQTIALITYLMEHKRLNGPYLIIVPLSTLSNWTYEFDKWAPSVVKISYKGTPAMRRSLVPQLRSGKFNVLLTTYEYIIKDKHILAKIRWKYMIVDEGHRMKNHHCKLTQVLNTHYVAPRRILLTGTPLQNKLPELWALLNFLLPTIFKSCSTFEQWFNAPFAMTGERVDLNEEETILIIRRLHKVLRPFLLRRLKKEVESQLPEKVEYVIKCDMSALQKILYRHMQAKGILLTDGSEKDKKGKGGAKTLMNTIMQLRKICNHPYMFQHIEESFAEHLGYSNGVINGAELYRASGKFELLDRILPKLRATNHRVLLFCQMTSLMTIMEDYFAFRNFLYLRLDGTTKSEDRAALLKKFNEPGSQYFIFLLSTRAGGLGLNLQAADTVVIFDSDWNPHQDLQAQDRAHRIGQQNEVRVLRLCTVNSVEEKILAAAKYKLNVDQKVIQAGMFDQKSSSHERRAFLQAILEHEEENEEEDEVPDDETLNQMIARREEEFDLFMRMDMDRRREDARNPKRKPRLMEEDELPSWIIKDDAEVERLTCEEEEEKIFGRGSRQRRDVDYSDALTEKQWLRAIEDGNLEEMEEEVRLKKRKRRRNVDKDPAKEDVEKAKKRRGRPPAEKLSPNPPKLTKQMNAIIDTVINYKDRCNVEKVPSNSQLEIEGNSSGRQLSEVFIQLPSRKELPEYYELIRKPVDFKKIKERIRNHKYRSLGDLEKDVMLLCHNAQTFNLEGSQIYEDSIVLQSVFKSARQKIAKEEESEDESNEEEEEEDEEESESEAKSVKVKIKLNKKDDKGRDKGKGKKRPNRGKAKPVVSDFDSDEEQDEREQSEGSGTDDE
Sequence of Photoreceptor-specific nuclear receptor (Q9Y5X4 whole entry, the tested form may be a part): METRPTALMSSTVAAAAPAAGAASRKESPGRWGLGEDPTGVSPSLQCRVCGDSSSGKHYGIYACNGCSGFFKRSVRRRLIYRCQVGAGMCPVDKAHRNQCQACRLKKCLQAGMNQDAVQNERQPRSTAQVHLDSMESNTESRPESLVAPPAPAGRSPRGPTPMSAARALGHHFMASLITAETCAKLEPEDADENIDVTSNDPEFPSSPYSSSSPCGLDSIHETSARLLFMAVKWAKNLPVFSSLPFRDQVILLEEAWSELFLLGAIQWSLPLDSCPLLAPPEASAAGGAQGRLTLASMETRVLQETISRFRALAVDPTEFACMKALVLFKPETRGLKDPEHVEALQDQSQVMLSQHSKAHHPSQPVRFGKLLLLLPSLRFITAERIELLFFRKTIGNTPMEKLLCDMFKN
Sequence of Fructose-bisphosphate aldolase (P9WQA3 whole entry): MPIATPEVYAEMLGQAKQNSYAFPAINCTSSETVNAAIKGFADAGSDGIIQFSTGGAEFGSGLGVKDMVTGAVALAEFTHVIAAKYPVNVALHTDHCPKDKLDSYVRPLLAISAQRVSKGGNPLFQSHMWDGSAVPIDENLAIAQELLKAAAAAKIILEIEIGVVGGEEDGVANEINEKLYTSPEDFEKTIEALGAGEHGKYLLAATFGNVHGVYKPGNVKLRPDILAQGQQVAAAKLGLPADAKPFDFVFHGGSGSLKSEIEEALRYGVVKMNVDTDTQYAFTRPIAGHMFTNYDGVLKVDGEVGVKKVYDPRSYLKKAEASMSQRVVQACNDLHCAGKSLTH
Sequence of Disintegrin and metalloproteinase domain-containing protein 17 (P78536 whole entry, the tested form may be a part): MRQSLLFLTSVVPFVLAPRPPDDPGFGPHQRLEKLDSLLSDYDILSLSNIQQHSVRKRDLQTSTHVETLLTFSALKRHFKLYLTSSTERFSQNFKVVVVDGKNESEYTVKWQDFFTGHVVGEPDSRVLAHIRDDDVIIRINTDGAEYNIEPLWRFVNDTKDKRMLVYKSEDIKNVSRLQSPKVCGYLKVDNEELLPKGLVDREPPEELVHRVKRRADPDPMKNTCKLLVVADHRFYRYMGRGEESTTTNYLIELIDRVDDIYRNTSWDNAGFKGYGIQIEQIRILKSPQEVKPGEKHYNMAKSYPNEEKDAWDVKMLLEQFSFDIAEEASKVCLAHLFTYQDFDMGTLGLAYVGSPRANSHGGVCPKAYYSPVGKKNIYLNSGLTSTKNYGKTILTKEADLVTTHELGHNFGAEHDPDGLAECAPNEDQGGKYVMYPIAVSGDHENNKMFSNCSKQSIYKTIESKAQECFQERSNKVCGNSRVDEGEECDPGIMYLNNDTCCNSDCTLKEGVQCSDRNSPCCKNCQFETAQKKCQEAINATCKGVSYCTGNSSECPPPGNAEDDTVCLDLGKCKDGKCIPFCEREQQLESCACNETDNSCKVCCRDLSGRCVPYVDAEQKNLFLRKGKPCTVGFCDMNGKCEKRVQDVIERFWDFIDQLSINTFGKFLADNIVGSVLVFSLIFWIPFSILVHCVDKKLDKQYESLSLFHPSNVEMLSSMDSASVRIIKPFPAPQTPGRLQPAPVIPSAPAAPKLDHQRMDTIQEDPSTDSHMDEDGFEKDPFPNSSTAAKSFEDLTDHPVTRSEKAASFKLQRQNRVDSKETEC

Compound: Cc1cc(NC(=O)CSc2nc3c(sc4ccccc43)c(=O)n2CCCN2CCOCC2)[nH]n1
- EC50 [1]: 100 µM (active)
- EC50 [2]: 285 µM (active)
- IC50 [3]: > 80 µM (inactive)
- EC50 [4]: 37.9 µM (active)
- IC50 [5]: 0.783 µM (active)
- EC50 [6]: > 91.2 µM (inactive)
- AC50 [7]: > 52 µM (inactive)
- EC50 [8]: > 91.2 µM (inactive)

Compound: C[C@H](CO)N1C[C@H](C)[C@H](CN(C)C(=O)Nc2ccc(C(F)(F)F)cc2)OCCCC[C@H](C)Oc2ccc(NS(=O)(=O)c3ccc(F)cc3)cc2C1=O
- AC50 (A549): 33.6 µM (active)

Compound: Cc1ccc(CSCC(=O)Nc2cc(S(=O)(=O)N3CCOCC3)ccc2OCC(F)(F)F)cc1
- EC50 [9]: > 29.9 µM (inactive)
- IC50 [10]: 1.25 µM (active)
- IC50 [11]: > 29.9 µM (inactive)
- EC50 [12]: > 29.9 µM (inactive)

Compound: COc1cccc(/C=C/c2nc(S(=O)(=O)c3ccccc3)c(N3CCC(C(N)=O)CC3)o2)c1
- IC50 [13]: 0.676 µM (active)

Compound: COc1ccccc1C(=O)Nc1ccc2c(c1)C(=O)N(C)C[C@H](OC)[C@@H](C)CN(C(C)=O)[C@@H](C)CO2
- AC50 [14]: 8.95 µM (active)

Compound: Cc1cc(Nc2ccc(Cl)cc2)n(-c2cccc(Cl)c2)n1
- IC50 [15]: > 69.5 µM (inactive)
- IC50 [16]: 21.3 µM (inactive)

Compound: C[C@@H]1CN([C@@H](C)CO)C(=O)c2cccc(NC(=O)Nc3ccc(C(F)(F)F)cc3)c2O[C@@H]1CN(C)C(=O)Nc1cccc2ccccc12
- AC50 [17]: 27.8 µM (active)
- AC50 [18]: 25 µM (active)
- AC50 [19]: 10.2 µM (active)
- AC50 [20]: 12.7 µM (active)
- AC50 [21]: 12.8 µM (active)
- AC50 [22]: 22.8 µM (active)
- AC50 [23]: 12.9 µM (active)
- AC50 [24]: > 52 µM (inactive)
